Assays:
Test in all cases: Combination study, ATPLite 72 h, dose matrix (Synergy Score, CI50)
U-2932 = test system: U-2932
HBL-1 = test system: HBL-1
OCI-Ly3 = conditions: OCT-Ly3, Example 2
TMD8 = conditions: for CI50 growth inhibition / CI50 inhibition / Synergy Score growth inhibition / Synergy Score inhibition: TMD8, Example 2
Farage = conditions: combination with Compound 1; Farage DLBCL cell line; FIG. 4-5
[1] = combination with CAL-101, Example 2
[2] = combination with Cmpd 1, Example 2

Row | Compound | Synergy Score growth inhibition (U-2932; [1]) | Synergy Score inhibition (U-2932; [1]) | Synergy Score growth inhibition (U-2932; [2]) | Synergy Score inhibition (U-2932; [2]) | Synergy Score growth inhibition (HBL-1; [1]) | Synergy Score inhibition (HBL-1; [1]) | Synergy Score growth inhibition (HBL-1; [2]) | Synergy Score inhibition (HBL-1; [2]) | Synergy Score growth inhibition (OCI-Ly3; combination with CAL-101) | Synergy Score inhibition (OCI-Ly3; combination with CAL-101) | CI50 growth inhibition (OCI-Ly3; combination with Cmpd 1) | Synergy Score growth inhibition (OCI-Ly3; combination with Cmpd 1) | Synergy Score inhibition (OCI-Ly3; combination with Cmpd 1) | CI50 growth inhibition (TMD8; combination with CAL-101) | CI50 inhibition (TMD8; combination with CAL-101) | Synergy Score growth inhibition (TMD8; combination with CAL-101) | Synergy Score inhibition (TMD8; combination with CAL-101) | CI50 growth inhibition (TMD8; combination with Cmpd 1) | CI50 inhibition (TMD8; combination with Cmpd 1) | Synergy Score growth inhibition (TMD8; combination with Cmpd 1) | other results
1 | CC(=O)c1c(C)c2cnc(Nc3ccc(N4CCNCC4)cn3)nc2n(C2CCCC2)c1=O [PD-0332991] | A1 (A1=0.0001 to <1) | A1 (A1=0.0001 to <1) | A1 (A1=0.0001 to <1) | A1 (A1=0.0001 to <1) | A1 (A1=0.0001 to <1) | A1 (A1=0.0001 to <1) | A1 (A1=0.0001 to <1) | A1 (A1=0.0001 to <1) | A3 (A3=>3) | A2 (A2=1 to <3) | T (T=0.5 to <0.7) | A2 (A2=1 to <3) | A1 (A1=0.0001 to <1) | S (S=0.01 to <0.5) | S (S=0.01 to <0.5) | A3 (A3=>3) | A2 (A2=1 to <3) | S (S=0.01 to <0.5) | S (S=0.01 to <0.5) | A3 (A3=>3) | CI50 growth inhibition (OCI-Ly3; combination with CAL-101): S (S=0.01 to <0.5); CI50 inhibition (OCI-Ly3; combination with CAL-101): S (S=0.01 to <0.5); CI50 inhibition (OCI-Ly3; combination with Cmpd 1): U (U=0.7 to <1); Synergy Score inhibition (TMD8; combination with Cmpd 1): A2 (A2=1 to <3)
2 | C=CC(=O)N1CCC[C@@H](n2nc(-c3ccc(Oc4ccccc4)cc3)c3c(N)ncnc32)C1 [PCI-32765] | A2 (A2=1 to <3) | A2 (A2=1 to <3) | A2 (A2=1 to <3) | A2 (A2=1 to <3) | A2 (A2=1 to <3) | A1 (A1=0.0001 to <1) | A2 (A2=1 to <3) | A1 (A1=0.0001 to <1) | A1 (A1=0.0001 to <1) | A1 (A1=0.0001 to <1) | S (S=0.01 to <0.5) | A1 (A1=0.0001 to <1) | A1 (A1=0.0001 to <1) | S (S=0.01 to <0.5) | S (S=0.01 to <0.5) | A3 (A3=>3) | A3 (A3=>3) | U (U=0.7 to <1) | T (T=0.5 to <0.7) | A3 (A3=>3) | CI50 growth inhibition (U-2932; [1]): T (T=0.5 to <0.7); CI50 inhibition (U-2932; [1]): U (U=0.7 to <1); CI50 growth inhibition (U-2932; [2]): U (U=0.7 to <1); CI50 inhibition (U-2932; [2]): U (U=0.7 to <1); CI50 growth inhibition (HBL-1; [1]): S (S=0.01 to <0.5); CI50 growth inhibition (HBL-1; [2]): S (S=0.01 to <0.5); Synergy Score inhibition (TMD8; combination with Cmpd 1): A3 (A3=>3)
3 | COc1ccc(-c2ccc3c(N4CCOC[C@@H]4C)nc(N4CCOC[C@@H]4C)nc3n2)cc1CO [AZD8055, (5-{2,4-bis[(3S)-3-methylmorpholin-4-yl]pyrido[2,3-d]pyrimidin-7-yl}-2-methoxyphenyl)methanol] |  |  |  |  |  |  |  |  |  |  |  |  |  |  |  |  |  |  |  |  | effect of the combination (isobologram) (Farage): synergistic effect; effect of the combination (isobologram) (TMD8; combination with Compound 1, TMD8 DLBCL cell line, FIG. 1-3): synergistic effect

From patent US20240325398A1, “COMBINATION THERAPIES” (Infinity Pharmaceuticals, Inc., priority 2014, published 2024)
